According to patent publication US20110230472A1, “RING-FUSED AZOLE DERIVATIVE HAVING PI3K-INHIBITING ACTIVITY” (Shionogi & Co., Ltd., priority 2008, published 2011):

These molecules were tested against PI-3 kinase γ (Homo sapiens, UniProt P48736) (assay: PI3Kγ inhibitory activity, PI3-kinase HTRF assay (inhibition ratio)). Conditions: 0.5 h; PI3Kγ, compound at 10 μM.
Type: biochemical
Procedure: The PI3Kγ inhibitory activity of a compound was evaluated using PI3-kinase HTRF™ assay (Millipore) according to the following procedure:
To each well of a testing plate, 5 μL of a compound solution containing 10% DMSO (200 μmol/L or 40 μmol/L as the concentration of the compound), 5 μL of a substrate solution (40 μmol/L phosphatidylinositol (4,5)-bisphosphate, 20 mmol/L MgCl2, 10 mmol/L DTT), and 5 μL of a enzyme solution (80 μg/mL PI-3 kinase γ, 10 mmol/L MgCl2, 5 mmol/L DTT) were added, and then allowed to stand for 10 minutes.
Then, 5 μL of a reaction solution (40 μmol/L ATP, 10 mmol/L MgCl2, 5 mmol/L DTT) was added thereto. After reacting for 30 minutes at room temperature, 5 μL of a solution containing EDTA and biotinylated phosphatidylinositol (3,4,5)-triphosphate were added to quench the reaction.
5 μL of a detection reagent containing a europium-labeled anti-GST antibody, the GST-tagged PH domain, and allophycocyanin-labeled streptavidin was added thereto. After 18 hours, HTRF (excitation wavelength: 330 nm, measured wavelengths: 620 nm and 665 nm) was measured.
HTRF ratio was defined as the value obtained by dividing the amount of fluorescence obtained at the measured wavelength 665 nm by the amount of fluorescence obtained at 620 nm. The HTRF ratio in the absence of a compound was defined as 100% activity and the HTRF ratio in the absence of PI-3 kinase γ was defined as 0% activity to calculate an inhibition ratio which was defined as the PI3Kγ inhibitory activity of a compound at 50 μmol/L or 10 μmol/L.

Sequence of PI-3 kinase γ (P48736 whole entry): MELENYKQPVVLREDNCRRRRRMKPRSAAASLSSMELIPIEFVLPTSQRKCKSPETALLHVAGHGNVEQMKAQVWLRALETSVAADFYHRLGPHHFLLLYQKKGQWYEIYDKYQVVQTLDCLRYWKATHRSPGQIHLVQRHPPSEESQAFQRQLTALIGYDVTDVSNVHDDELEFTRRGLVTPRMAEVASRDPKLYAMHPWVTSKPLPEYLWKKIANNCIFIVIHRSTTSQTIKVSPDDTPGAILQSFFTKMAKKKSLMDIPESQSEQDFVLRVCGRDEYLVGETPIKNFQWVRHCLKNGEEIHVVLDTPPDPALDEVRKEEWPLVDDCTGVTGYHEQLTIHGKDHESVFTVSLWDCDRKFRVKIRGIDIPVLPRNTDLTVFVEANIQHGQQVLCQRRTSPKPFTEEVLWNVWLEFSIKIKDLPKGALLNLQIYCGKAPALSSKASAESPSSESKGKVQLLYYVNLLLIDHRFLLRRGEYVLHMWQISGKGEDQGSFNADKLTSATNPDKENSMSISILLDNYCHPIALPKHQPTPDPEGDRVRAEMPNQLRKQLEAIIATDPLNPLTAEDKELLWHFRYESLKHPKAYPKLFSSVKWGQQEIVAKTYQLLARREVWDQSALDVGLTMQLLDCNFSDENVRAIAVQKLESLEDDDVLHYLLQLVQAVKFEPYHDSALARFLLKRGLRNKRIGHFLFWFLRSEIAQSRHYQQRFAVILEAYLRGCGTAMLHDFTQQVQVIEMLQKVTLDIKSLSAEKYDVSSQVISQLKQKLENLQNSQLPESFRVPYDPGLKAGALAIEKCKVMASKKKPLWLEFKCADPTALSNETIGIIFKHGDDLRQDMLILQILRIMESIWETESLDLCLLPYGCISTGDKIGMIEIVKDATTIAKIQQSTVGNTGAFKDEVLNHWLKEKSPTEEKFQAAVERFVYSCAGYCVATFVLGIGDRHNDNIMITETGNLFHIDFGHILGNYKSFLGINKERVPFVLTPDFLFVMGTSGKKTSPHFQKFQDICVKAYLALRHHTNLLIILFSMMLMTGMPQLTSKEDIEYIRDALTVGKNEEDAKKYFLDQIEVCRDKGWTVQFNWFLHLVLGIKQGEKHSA

inhibition at 10 µM	SMILES
82%	COc1cc(N2CCc3nc(NC(=O)NCCCN4CCCC4=O)sc3C2)nc(OC)n1 [Compound I-253]
78%	CNC(=O)Nc1cc2n(n1)CCN2c1ccc(C(=O)NC)s1 [Compound I-256]
90%	COc1cc(N2CCc3nc(NC(=O)NCCCC(=O)OC(C)(C)C)sc3C2)nc(OC)n1 [Compound I-261]
≥ 95%	CNC(=O)Nc1nc2c(s1)CN(c1cc(Oc3ccccc3)nc(OCCCO)n1)CC2 [Compound I-263]
89%	COc1cc(N2CCc3nc(NC(=O)CC(=O)OC(C)(C)C)sc3C2)nc(OC)n1 [Compound I-264]
≥ 95%	COc1cc(N2CCc3nc(NC(=O)Cc4cc(OC)c(OC)c(OC)c4)sc3C2)nc(OC)n1 [Compound I-268]
≥ 95%	COc1cc(N2CCc3nc(NC(=O)Cc4cccc(C(F)(F)F)c4)sc3C2)nc(OC)n1 [Compound I-269]
≥ 95%	COc1cc(N2CCc3nc(NC(=O)NCCC(=O)N(C)C(C)(C)C)sc3C2)nc(OC)n1 [Compound I-270]
≥ 95%	COc1cc(N2CCc3nc(NC(=O)NCCC(=O)N4[C@H](C)CCC[C@@H]4C)sc3C2)nc(OC)n1 [Compound I-271]
≥ 95%	COc1cc(N2CCc3nc(NC(=O)NCCC(=O)N(C(C)C)C(C)C)sc3C2)nc(OC)n1 [Compound I-272]
≥ 95%	COc1cc(N2CCc3nc(NC(=O)NCCC(=O)Nc4ccccc4)sc3C2)nc(OC)n1 [Compound I-273]
≥ 95%	COc1cc(N2CCc3nc(NC(=O)NCCC(=O)N(C)c4ccccc4)sc3C2)nc(OC)n1 [Compound I-274]
≥ 95%	COc1cc(N2CCc3nc(NC(=O)NCCC(=O)N4CCC[C@H]4C(=O)OC(C)(C)C)sc3C2)nc(OC)n1 [Compound I-275]
≥ 95%	COc1cc(N2CCc3nc(NC(=O)N[C@@H](CC(=O)OC(C)(C)C)C(=O)O)sc3C2)nc(OC)n1 [Compound I-280]
≥ 95%	COc1cc(N2CCc3nc(NC(=O)CCNC(=O)OC(C)(C)C)sc3C2)nc(OC)n1 [Compound I-281]
86%	COc1cc(C(=O)Nc2nc3c(s2)CN(c2cc(OC)nc(OC)n2)CC3)on1 [Compound I-282]
≥ 95%	CC(=O)Nc1cc2n(n1)CCN2c1ccc2c(c1)CCC2=O [Compound I-283]
≥ 95%	COc1cc(N2CCc3nc(NC(=O)NCC(=O)NCC(C)(C)C)sc3C2)nc(OC)n1 [Compound I-285]
≥ 95%	COc1cc(N2CCc3nc(NC(=O)NCCCOC(C)(C)C)sc3C2)nc(OC)n1 [Compound I-288]

Same assay, conditions: 0.5 h; PI3Kγ, compound at 50 μM

inhibition at 50 µM	SMILES
81%	CNC(=O)Nc1cc2n(n1)CCN2c1cc(C#Cc2cccnc2)cc(C(=O)N2CCOCC2)c1 [Compound I-254]
83%	COc1cc(N2CCc3nc(NC(=O)[C@H](O)c4ccccc4)sc3C2)nc(OC)n1 [Compound I-257]
92%	COc1cc(N2CCc3nc(NC(=O)[C@@H](O)c4ccccc4)sc3C2)nc(OC)n1 [Compound I-258]
89%	COc1cc(N2CCc3nc(NC(=O)C(=O)c4ccccc4)sc3C2)nc(OC)n1 [Compound I-259]
93%	CNC(=O)Nc1cc2n(n1)CCN2c1cc(CCc2ccccc2)cc(C(=O)N2CCOCC2)c1 [Compound I-260]
≥ 95%	CNC(=O)Nc1cc2n(n1)CCN2c1cc(C(=O)N2CCOCC2)cc(C2CCCCC2)c1 [Compound I-267]
77%	COc1cccc(N2CCn3nc(N)cc32)c1 [Compound I-286]

Same assay, conditions: 0.5 h; compound at 10 μmol/L

inhibition at 10 µM	SMILES
90%	COc1cc(N2CCc3nc(NC(=O)Nc4ccc(C(C)(C)C)cc4)sc3C2)nc(OC)n1 [Compound I-289]
≥ 95%	O=C(Nc1cc2n(n1)CCN2c1ccc2cnccc2c1)OCc1ccccc1 [Compound I-291]
86%	COc1cccc(N2CCn3nc(NC(=O)CCNC(=O)OC(C)(C)C)cc32)c1 [Compound I-293]
84%	COc1cc(N2CCc3nc(NC(=O)NC4CCCCC4)sc3C2)nc(OC)n1 [Compound I-294]
93%	COc1cccc(NC(=O)Nc2nc3c(s2)CN(c2cc(OC)nc(OC)n2)CC3)c1 [Compound I-295]
88%	COc1cc(N2CCc3nc(NC(=O)Nc4cccs4)sc3C2)nc(OC)n1 [Compound I-296]
91%	COc1cc(N2CCc3nc(NC(=O)Nc4ccsc4)sc3C2)nc(OC)n1 [Compound I-297]
85%	COc1cc(N2CCc3nc(NC(=O)Nc4ccccn4)sc3C2)nc(OC)n1 [Compound I-302]
89%	COc1cc(N2CCc3nc(NC(=O)N4CCC(=O)N5CCOCC5C4=O)sc3C2)nc(OC)n1 (stereo not shown) [Compound I-304]
≥ 95%	CC(=O)Nc1cc2n(n1)CCN2c1ccc2c(c1)CCCN2C(=O)OC(C)(C)C [Compound I-306]
86%	CCOC(=O)CCCCC(=O)Nc1cc2n(n1)CCN2c1cccc(OC)c1 [Compound I-307]
≥ 95%	COc1cc(N2CCc3nc(NC(=O)NCCC(=O)N4CCC[C@H]4C(=O)NC(C)(C)C)sc3C2)nc(OC)n1 [Compound I-311]
≥ 95%	COc1cc(N2CCc3nc(NC(=O)NCCC(=O)N4CCC[C@H]4C(=O)N4CCCC4)sc3C2)nc(OC)n1 [Compound I-312]
89%	COc1cc(N2CCc3nc(NC(=O)NCCC(=O)N4CCC[C@H]4C(=O)N(C)C(C)C)sc3C2)nc(OC)n1 [Compound I-313]
88%	CN1CCc2cc(N3CCn4nc(NC(=O)OCc5ccccc5)cc43)ccc2C1=O [Compound I-314]
≥ 95%	COc1cccc(N2CCn3nc(NC(=O)CCCCC(=O)O)cc32)c1 [Compound I-315]
75%	Nc1cc2n(n1)CCN2c1ccc2cnccc2c1 [Compound I-316]

inhibition at 10 µM	SMILES
≥ 95%	COc1cccc(N2CCn3nc(NC(=O)c4ccc[nH]4)cc32)c1 [Compound I-320]
95%	COc1cc(N2CCc3nc(NC(=O)Nc4cccc(C(=O)OC(C)(C)C)c4)sc3C2)nc(OC)n1 [Compound I-321]
93%	CN1CCc2cc(N3CCn4nc(NC(=O)c5ccccc5)cc43)ccc2C1=O [Compound I-324]
87%	COc1cc(N2CCc3nc(NC(=O)NCCC(=O)N4CCOCC4(C)C)sc3C2)nc(OC)n1 [Compound I-328]
89%	COc1cc(N2CCc3nc(NC(=O)NCc4cc(Br)no4)sc3C2)nc(OC)n1 [Compound I-329]
88%	CNC(=O)Nc1nc2c(s1)CN(c1cc(Cl)nc(OC)n1)CC2 [Compound I-333]
88%	COc1nc(Cl)cc(N2CCc3nc(NC(C)=O)sc3C2)n1 [Compound I-334]
≥ 95%	CC(=O)Nc1cc2n(n1)CCN2c1ccc2c(c1)CCC(=O)N2 [Compound I-335]
89%	CNC(=O)Nc1cc2n(n1)CCN2c1ccc2c(c1)CCN(C)C2=O [Compound I-336]
82%	COc1cc(N2CCc3nc(NC(=O)Cc4ccccc4C(=O)NC(C)(C)C)sc3C2)nc(OC)n1 [Compound I-337]
92%	CN1CCc2cc(N3CCn4nc(NC(=O)Cc5ccc(F)cc5)cc43)ccc2C1=O [Compound I-342]
80%	CN1CCc2cc(N3CCn4nc(NC(=O)c5ccc(S(C)(=O)=O)s5)cc43)ccc2C1=O [Compound I-344]
80%	CN1CCc2cc(N3CCn4nc(NC(=O)c5cc6ccccc6[nH]5)cc43)ccc2C1=O [Compound I-345]
≥ 95%	CN1CCc2cc(N3CCn4nc(NC(=O)c5ccc6[nH]cnc6c5)cc43)ccc2C1=O [Compound I-349]
≥ 95%	CN1CCc2cc(N3CCn4nc(NC(=O)c5ccncc5)cc43)ccc2C1=O [Compound I-360]
80%	Cc1csc(C(=O)Nc2cc3n(n2)CCN3c2ccc3c(c2)CCN(C)C3=O)c1 [Compound I-361]

Same assay, conditions: 0.5 h; compound at 50 μmol/L

inhibition at 50 µM	SMILES
88%	COc1cc(N2CCc3nc(NC(=O)NC4CCC(C(C)(C)C)CC4)sc3C2)nc(OC)n1 (stereo not shown) [Compound I-290]
≥ 95%	CC(=O)Nc1cc2n(n1)CCN2c1ccc2c(c1)CCN(C(=O)OC(C)(C)C)C2 [Compound I-301]
84%	CC(=O)Nc1cc2n(n1)CCN2c1ccc2c(c1)CCNC2 [Compound I-305]
81%	CNC(=O)Nc1nc2c(s1)CN(c1cc(OCC3CC3)nc(Cl)n1)CC2 [Compound I-325]
≥ 95%	CN1CCc2cc(N3CCn4nc(NC(=O)C5CCN(C(=O)OC(C)(C)C)C5)cc43)ccc2C1=O (stereo not shown) [Compound I-350]
≥ 95%	CN1CCc2cc(N3CCn4nc(NC(=O)CC5CCN(C(=O)OC(C)(C)C)C5)cc43)ccc2C1=O (stereo not shown) [Compound I-351]
81%	CN1CCc2cc(N3CCn4nc(NC(=O)C(O)c5ccccc5)cc43)ccc2C1=O (stereo not shown) [Compound I-352]
92%	CN1CCc2cc(N3CCn4nc(NC(=O)C5CCNC5)cc43)ccc2C1=O (stereo not shown) [Compound I-355]
